Reference: ChEMBL document CHEMBL4837228, “Generation and Biological Evaluation of Degraded Derivatives of the Three E/Z-Isomers of Yaku'amide B” (2021)

Tested on: MCF7
Test: Growth inhibition of human MCF7 cells for 48 hrs by sulforhodamine B assay
Format: functional

Structure (SMILES) | GI50
CC/C(C)=C(\NC(=O)[C@@H](NC(=O)[C@H](NC(=O)[C@H](NC(=O)[C@H](NC(=O)/C(NC(=O)[C@H](C)NC(=O)/C(NC(=O)[C@@H](NC(=O)C(C)(C)C(=O)[C@@H](C)CC(C)C)[C@](C)(O)CC)=C(\C)CC)=C(/C)CC)C(C)C)[C@@H](C)CC)C(C)(C)O)C(C)(C)O)C(=O)N[C@H](C)C(=O)N[C@@H](C(=O)N[C@H](C(=O)NC(C(=O)N[C@H](CN(C)C)C(C)C)=C(C)C)C(C)C)C(C)C | 18.2 nM
CC/C(C)=C(\NC(=O)[C@H](C)NC(=O)/C(NC(=O)CNC(=O)C(C)(C)C(=O)[C@@H](C)CC(C)C)=C(/C)CC)C(=O)N[C@@H](C(=O)N[C@@H](C(=O)N[C@@H](C(=O)N[C@H](C(=O)N/C(C(=O)N[C@H](C)C(=O)N[C@@H](C(=O)N[C@H](C(=O)NC(C(=O)N[C@H](CN(C)C)C(C)C)=C(C)C)C(C)C)C(C)C)=C(/C)CC)C(C)(C)O)C(C)(C)O)[C@@H](C)CC)C(C)C | 47.7 nM
CC/C(C)=C(\NC(=O)CNC(=O)C(C)(C)C(=O)[C@@H](C)CC(C)C)C(=O)N[C@@H](C)C(=O)N/C(C(=O)N[C@@H](C(=O)N[C@@H](C(=O)N[C@@H](C(=O)N[C@H](C(=O)N/C(C(=O)N[C@H](C)C(=O)N[C@@H](C(=O)N[C@H](C(=O)NC(C(=O)N[C@H](CN(C)C)C(C)C)=C(C)C)C(C)C)C(C)C)=C(\C)CC)C(C)(C)O)C(C)(C)O)[C@@H](C)CC)C(C)C)=C(/C)CC | 26.8 nM
CC/C(C)=C(\NC(=O)[C@@H](NC(=O)[C@H](NC(=O)[C@H](NC(=O)[C@H](NC(=O)/C(NC(=O)[C@H](C)NC(=O)/C(NC(=O)[C@@H](NC(=O)C(C)(C)C(=O)[C@@H](C)CC(C)C)[C@](C)(O)CC)=C(/C)CC)=C(/C)CC)C(C)C)[C@@H](C)CC)C(C)(C)O)C(C)(C)O)C(=O)N[C@H](C)C(=O)N[C@@H](C(=O)N[C@H](C(=O)NC(C(=O)N[C@H](CN(C)C)C(C)C)=C(C)C)C(C)C)C(C)C | 25.4 nM
CC/C(C)=C(\NC(=O)CNC(=O)C(C)(C)C(=O)[C@@H](C)CC(C)C)C(=O)N[C@@H](C)C(=O)N/C(C(=O)N[C@@H](C(=O)N[C@@H](C(=O)N[C@@H](C(=O)NCC(=O)N/C(C(=O)N[C@H](C)C(=O)N[C@@H](C(=O)N[C@H](C(=O)NC(C(=O)N[C@H](CN(C)C)C(C)C)=C(C)C)C(C)C)C(C)C)=C(\C)CC)C(C)(C)O)[C@@H](C)CC)C(C)C)=C(/C)CC | 304 nM
CC/C(C)=C(\NC(=O)[C@H](C)NC(=O)/C(NC(=O)[C@@H](NC(=O)C(C)(C)C(=O)[C@@H](C)CC(C)C)[C@](C)(O)CC)=C(/C)CC)C(=O)N[C@@H](C(=O)N[C@@H](C(=O)N[C@@H](C(=O)N[C@H](C(=O)N/C(C(=O)N[C@H](C)C(=O)N[C@@H](C(=O)N[C@H](C(=O)NC(C(=O)N[C@H](CN(C)C)C(C)C)=C(C)C)C(C)C)C(C)C)=C(/C)CC)C(C)(C)O)C(C)(C)O)[C@@H](C)CC)C(C)C | 24.6 nM
CC/C(C)=C(\NC(=O)[C@@H](NC(=O)[C@H](NC(=O)[C@H](NC(=O)[C@H](NC(=O)/C(NC(=O)[C@H](C)NC(=O)/C(NC(=O)CNC(=O)C(C)(C)C(=O)[C@@H](C)CC(C)C)=C(/C)CC)=C(/C)CC)C(C)C)[C@@H](C)CC)C(C)(C)O)C(C)(C)O)C(=O)N[C@H](C)C(=O)N[C@@H](C(=O)N[C@H](C(=O)NC(C(=O)N[C@H](CN(C)C)C(C)C)=C(C)C)C(C)C)C(C)C | 28.2 nM
CC/C(C)=C(\NC(=O)[C@H](C)NC(=O)/C(NC(=O)[C@@H](NC(=O)C(C)(C)C(=O)[C@@H](C)CC(C)C)[C@](C)(O)CC)=C(\C)CC)C(=O)N[C@@H](C(=O)N[C@@H](C(=O)N[C@@H](C(=O)N[C@H](C(=O)N/C(C(=O)N[C@H](C)C(=O)N[C@@H](C(=O)N[C@H](C(=O)NC(C(=O)N[C@H](CN(C)C)C(C)C)=C(C)C)C(C)C)C(C)C)=C(\C)CC)C(C)(C)O)C(C)(C)O)[C@@H](C)CC)C(C)C | 57.4 nM
